Results as given in patent US9532947B2, “Formulation for oral transmucosal administration of analgesic and/or antispasmodic molecules” (priority 2009, dated 2017).

Tests used:
[1] = oral/digestive route, cited from earlier work; for fraction of the orally administered dose that is truly bioavailable (residual part reaching the smooth muscular membranes): coated pill or ODT form, on average at best
[2] = Complete dissolution of active principle in approximately 40° ethanol (dissolution coefficient); format: physicochemical
From the text: The expression “stable and completely dissolved state” refers to a solution state rendering the active principle in the molecular and weakly ionized state in its solution medium, this solution state preventing any possibility of inopportune recrystallization. This stable and completely dissolved state may be monitored immediately on use of the formulation of the invention by evaluating the visual appearance of the solution obtained (measurement of the degree of limpidity), then at the level of the filtration residues (appearance or non-appearance of crystals), and finally in the medium-term and long-term during stability tracking tests at varying temperatures and relative humidities.
By way of illustration, the dissolution coefficient of phloroglucinol in ethanol makes it possible to obtain complete dissolution of said active principle at the rate of 20 milligrams (mg) of phloroglucinol in 0.75 mL of approximately 40° ethanol.
Similarly, the coefficient of dissolution of tiemonium methylsulfate in ethanol makes it possible to obtain complete dissolution of said active principle at the rate of 10 mg of tiemonium in 0.75 mL of approximately 40° ethanol. The coefficient of dissolution of nefopam in ethanol makes it possible to obtain complete dissolution of said active principle at the rate of 20 mg of nefopam in 1 mL of approximately 40° ethanol.

| complete dissolution of active principle at the rate of [2] | Structure (SMILES) | truly bioavailable dose of active principle resorbed by the digestive tract ([1]; all three main metabolites have no pharmacological activity) | fraction of the orally administered dose that is truly bioavailable (residual part reaching the smooth muscular membranes) [1] |
| --- | --- | --- | --- |
| 20 mg in 1 mL | CN1CCOC(c2ccccc2)c2ccccc2C1 (stereo not drawn) [nefopam] | virtually nil | – |
| 20 mg in 0.75 mL | Oc1cc(O)cc(O)c1 [phloroglucinol] | – | 40% to 50 |
| 10 mg in 0.75 mL | COS(=O)(=O)[O-].C[N+]1(CCC(O)(c2ccccc2)c2cccs2)CCOCC1 (stereo not drawn) [tiemonium, tiemonium methylsulfate] | – | 10% to 15 |
